Data on 13 compounds can be found in patent US9845319B2, “Amide substituted thiazoles as modulators of RORyt” (Janssen Pharmaceutica NV, priority 2014, dated 2017).

For one test, the target named is T1, full-length human RORγt (Homo sapiens, UniProt P51449).
T1 construct: expressed in transfected cells; host or cells: HEK293T, transiently transfected with pCMV-BD-ROR
T1 sequence (P51449 1-497 isoform P51449-2): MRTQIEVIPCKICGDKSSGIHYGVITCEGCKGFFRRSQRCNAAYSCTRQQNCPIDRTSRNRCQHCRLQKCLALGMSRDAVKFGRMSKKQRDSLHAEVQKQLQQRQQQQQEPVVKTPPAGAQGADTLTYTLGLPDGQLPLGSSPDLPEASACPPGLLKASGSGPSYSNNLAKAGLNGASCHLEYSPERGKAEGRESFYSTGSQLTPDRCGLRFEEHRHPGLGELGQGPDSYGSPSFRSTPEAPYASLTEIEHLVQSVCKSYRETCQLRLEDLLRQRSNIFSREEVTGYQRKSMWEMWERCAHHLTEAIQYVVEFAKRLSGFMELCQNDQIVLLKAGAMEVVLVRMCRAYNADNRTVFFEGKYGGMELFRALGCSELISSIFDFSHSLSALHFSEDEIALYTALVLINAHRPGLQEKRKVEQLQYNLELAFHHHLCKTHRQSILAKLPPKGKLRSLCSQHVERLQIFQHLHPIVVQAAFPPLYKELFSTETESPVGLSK
The test is described as follows: RORγt (full-length human) Reporter Assay, Conditions A. In kind it is cell-based. As to conditions: for IC50: HEK293T cells, GAL4-DBD-RORγt, luciferase, read-out: RORγt (FL) Reporter Assay A, IC50; for inhibition at 6 µM: read-out: RORγt (FL) Reporter Assay A, % inhibition @ 6 μM, 6 μM compound; for inhibition at 2 µM: read-out: RORγt (FL) Reporter Assay A, % inhibition (* at 2 μM), 2 μM compound concentration (footnote *). The essentials:
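Reporter cells lysed after 16–20 h compound exposure; firefly and Renilla luciferase luminescence measured. Firefly signal normalised to DMSO and saturating reference compound, then to Renilla; IC50 from normalised data versus concentration, percent inhibition relative to DMSO.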
Background: Reporter assays use an easily measured gene product as a stand-in for the process of interest.

Test [1] addresses T2, human RORγt ligand binding domain (RORγt LBD) (Homo sapiens, UniProt P51449).
T2 construct: His-tag (N); TurboTEV protease cleavage site (ENLYFQG) (N); made in house; host or cells: E. coli (pHIS1, a modified pET expression vector)
T2 sequence (P51449 with tags, fused parts or gaps): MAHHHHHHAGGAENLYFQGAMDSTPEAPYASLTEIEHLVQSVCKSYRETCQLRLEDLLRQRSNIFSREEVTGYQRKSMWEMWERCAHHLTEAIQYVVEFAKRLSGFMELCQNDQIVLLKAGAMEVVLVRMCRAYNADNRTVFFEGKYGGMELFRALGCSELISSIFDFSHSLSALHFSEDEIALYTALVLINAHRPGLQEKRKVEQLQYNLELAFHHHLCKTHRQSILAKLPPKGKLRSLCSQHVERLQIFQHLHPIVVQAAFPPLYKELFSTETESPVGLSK
The test is described as follows: RORγt ThermoFluor assay. As to conditions: estimated from thermal shift concentration response. The essentials:
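Thermal shift of RORγt LBD (0.065 mg/mL) with 60 μM 1,8-ANS in 100 mM Hepes pH 7.0, NaCl, GSH, 0.002% Tween-20, heated at 1° C/min. ANS fluorescence tracked versus temperature; ΔTm relative to DMSO wells. Compounds serially diluted 1:2 from 10 mM DMSO stock.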

Test [2] concerns IL-17 production by CD4 T cells. The test is described as follows: Human Th17 Assay. In kind it is cell-based. As to conditions: 72 h, read-out: Human Th17 Assay, IC50. As to the method: The human Th17 assay tests the effect of RORγt modulatory compounds on IL-17 production by CD4 T cells under conditions which favor Th17 differentiation. Total CD4^+ T cells were isolated from the peripheral blood mononuclear cells (PBMC) of healthy donors using a CD4^+ T cell isolation kit II, following the manufacturer's instructions (Miltenyi Biotec). […] 50 μL of compound at titrated concentrations in DMSO were added into each well at final DMSO concentration at 0.2%. Cells were incubated for 1 hour, then 50 μL of Th17 cell differentiation medium was added to each well. The final concentrations of antibodies and cytokines (R&D Systems) in differentiation medium were: 3×10^6/mL anti-CD3/CD28 beads (prepared using human T cell activation/expansion kit, Miltenyi Biotec), 10 μg/mL anti-IL4, 10 μg/mL anti-IFNγ, 10 ng/mL IL1β, 10 ng/mL IL23, 50 ng/mL IL6, 3 ng/mL TGFβ and 20 U/mL IL2. Cells were cultured at 37° C. and 5% CO2 for 3 days. Supernatants were collected and the accumulated IL-17 in culture was measured by using MULTI-SPOT® Cytokine Plate following manufacture's instruction (Meso Scale Discovery). The plate was read using Sector Imager 6000, and IL-17 concentration was extrapolated from the standard curve. The IC50s were determined by GraphPad.

The mark [3] stands for this setting: IL-17 in supernatant, 3 days, human CD4+ T cells.

The structures appear in SMILES notation. Read-outs that look alike come from different tables or passages of the source.

On to `CCN(CC)C(=O)c1nc(-c2nnc(CC(C)(C)C(=O)O)o2)sc1-c1ccc(S(=O)(=O)N[C@@H](C)C(F)(F)F)c(Cl)c1Cl` [Example 1, (S)-3-(5-(5-(2,3-Dichloro-4-(N-(1,1,1-trifluoropropan-2-yl)sulfamoyl)phenyl)-4-(diethylcarbamoyl)thiazol-2-yl)-1,3,4-oxadiazol-2-yl)-2,2-dimethylpropanoic acid], for which, on full-length human RORγt, the IC50 was determined as 1100 nM and the inhibition at 6 µM was found to be 89%. Also, the Kd in test [1] was 1.3 nM. Besides, in test [2] (setting [3]), the IC50 turned out to be 54 nM.

In the case of `CC(C)(Cc1nnc(-c2nc(C(=O)N3CCC(F)CC3)c(-c3cc(C(C)(C)C)cc(C(O)(C(F)(F)F)C(F)(F)F)c3)s2)o1)C(=O)O` [Example 2/2, 3-(5-(5-(3-(tert-Butyl)-5-(1,1,1,3,3,3-hexafluoro-2-hydroxypropan-2-yl)phenyl)-4-(4-fluoropiperidine-1-carbonyl)thiazol-2-yl)-1,3,4-oxadiazol-2-yl)-2,2-dimethylpropanoic acid], the IC50 (on full-length human RORγt; in test [2] (setting [3])) was 150 nM in each case. Also, the inhibition at 6 µM at full-length human RORγt amounted to 104%. The Kd in test [1] is 2 nM.

Turning to `C[C@H](NS(=O)(=O)c1ccc(-c2sc(-c3nnc(C(C)(C)O)o3)nc2C(=O)N2CCC(F)(F)CC2)c(Cl)c1Cl)C(F)(F)F` [Example 4/4, (S)-2,3-Dichloro-4-(4-(4,4-difluoropiperidine-1-carbonyl)-2-(5-(2-hydroxypropan-2-yl)-1,3,4-oxadiazol-2-yl)thiazol-5-yl)-N-(1,1,1-trifluoropropan-2-yl)benzenesulfonamide], the 50% inhibitory concentration (IC50) in test [2] (Homo sapiens, CD4+ T) came to 15 nM.

Take `C[C@H](NS(=O)(=O)c1ccc(-c2sc(-c3cnn[nH]3)nc2C(=O)N2CCCC[C@@H]2C)c(Cl)c1Cl)C(F)(F)F` [Example 16, 2,3-Dichloro-4-(4-((S)-2-methylpiperidine-1-carbonyl)-2-(1H-1,2,3-triazol-5-yl)thiazol-5-yl)-N—((S)-1,1,1-trifluoropropan-2-yl)benzenesulfonamide]: on full-length human RORγt, the half-maximal inhibitory concentration (IC50) came to 14 nM and the inhibition at 2 µM was 100%. The dissociation constant Kd in test [1] is 6.6 nM.

As to `CCN(CC)C(=O)c1nc(-c2cccc(C(C)(C)O)n2)sc1-c1ccc(S(=O)(=O)N[C@@H](C)C(F)(F)F)c(Cl)c1Cl` [Example 17, (S)-5-(2,3-Dichloro-4-(N-(1,1,1-trifluoropropan-2-yl)sulfamoyl)phenyl)-N,N-diethyl-2-(6-(2-hydroxypropan-2-yl)pyridin-2-yl)thiazole-4-carboxamide], on full-length human RORγt, the 50% inhibitory concentration (IC50) was determined as 14 nM and the inhibition at 2 µM was found to be 104%. In test [1], the Kd is 7.1 nM.

Consider `CCN(CC)C(=O)c1nc(-c2cc(C(C)(C)O)ccn2)sc1-c1ccc(S(=O)(=O)N[C@@H](C)C(F)(F)F)c(Cl)c1Cl` [Example 17/1, (S)-5-(2,3-Dichloro-4-(N-(1,1,1-trifluoropropan-2-yl)sulfamoyl)phenyl)-N,N-diethyl-2-(4-(2-hydroxypropan-2-yl)pyridin-2-yl)thiazole-4-carboxamide], for which, on full-length human RORγt (0.22 μM compound concentration (footnote ***), read-out: RORγt (FL) Reporter Assay A, % inhibition (*** at 0.22 μM)), the inhibition at 0.22 µM amounted to 91%. In addition, the half-maximal inhibitory concentration (IC50) at full-length human RORγt was 27 nM. In addition, the dissociation constant Kd in test [1] was 7.8 nM.

For the compound `CCN(CC)C(=O)c1nc(-c2cc(C(C)(C)O)ncn2)sc1-c1ccc(S(=O)(=O)N[C@@H](C)C(F)(F)F)c(Cl)c1Cl` [Example 17/2, (S)-5-(2,3-Dichloro-4-(N-(1,1,1-trifluoropropan-2-yl)sulfamoyl)phenyl)-N,N-diethyl-2-(6-(2-hydroxypropan-2-yl)pyrimidin-4-yl)thiazole-4-carboxamide], at full-length human RORγt (0.67 μM compound concentration, read-out: RORγt (FL) Reporter Assay A, % inhibition (** at 0.67 μM)), the inhibition at 0.67 µM turned out to be 106%. At full-length human RORγt, the IC50 was found to be 31 nM. In addition, in test [1], the dissociation constant Kd is 2.8 nM.

Consider `CC[C@H](NS(=O)(=O)c1ccc(-c2sc(-c3cccc(CC(C)(C)C(=O)O)n3)nc2C(=O)N2CC(F)(F)C[C@@H]2C)c(C(F)F)c1F)C(F)(F)F` [Example 19/1, 3-(6-(4-((S)-4,4-Difluoro-2-methylpyrrolidine-1-carbonyl)-5-(2-(difluoromethyl)-3-fluoro-4-(N—((S)-1,1,1-trifluorobutan-2-yl)sulfamoyl)phenyl)thiazol-2-yl)pyridin-2-yl)-2,2-dimethylpropanoic acid], for which, at full-length human RORγt, the concentration for half-maximal inhibition (IC50) is 10 nM and the inhibition at 2 µM came out at 98%. Also, the Kd in test [1] is 0.023 nM.

On to `C[C@H]1CCCCN1C(=O)c1nc(-c2noc(CC(C)(C)C(=O)O)n2)sc1-c1ccc(C(O)(C(F)(F)F)C(F)(F)F)c(Cl)c1Cl` [Example 20, (S)-3-(3-(5-(2,3-Dichloro-4-(1,1,1,3,3,3-hexafluoro-2-hydroxypropan-2-yl)phenyl)-4-(2-methylpiperidine-1-carbonyl)thiazol-2-yl)-1,2,4-oxadiazol-5-yl)-2,2-dimethylpropanoic acid], for which, at full-length human RORγt, the IC50 is 12 nM and the inhibition at 2 µM is 101%. Moreover, in test [1], the dissociation constant (Kd) was 0.026 nM.

With `CC1(NS(=O)(=O)c2ccc(-c3sc(-c4nnc(C(C)(C)O)o4)nc3C(=O)N3CCC(F)(F)CC3)c(Cl)c2Cl)CC1` [Example 21, 2,3-Dichloro-4-(4-(4,4-difluoropiperidine-1-carbonyl)-2-(5-(2-hydroxypropan-2-yl)-1,3,4-oxadiazol-2-yl)thiazol-5-yl)-N-(1-methylcyclopropyl)benzenesulfonamide], on full-length human RORγt, the half-inhibitory concentration (IC50) stood at 67 nM and the inhibition at 6 µM amounted to 107%. Also, in test [1], the dissociation constant Kd was 4.7 nM.

Regarding `C[C@H](NS(=O)(=O)c1ccc(-c2sc(-c3nnc(C(C)(C)O)o3)nc2C(=O)N2CCC(F)(F)CC2)c2c1CCCO2)C(F)(F)F` [Example 24, 8-(4-(4,4-Difluoropiperidine-1-carbonyl)-2-(5-(2-hydroxypropan-2-yl)-1,3,4-oxadiazol-2-yl)thiazol-5-yl)-N—((S)-1,1,1-trifluoropropan-2-yl)chroman-5-sulfonamide], on full-length human RORγt, the IC50 was 190 nM and the inhibition at 6 µM amounted to 97%. For the same compound, in test [1], the dissociation constant Kd was 5.2 nM.

Regarding `C[C@H](NS(=O)(=O)c1ccc(-c2sc(-c3nnc(C(C)(C)O)o3)nc2C(=O)N2CCC(F)(F)CC2)c(F)c1C(F)(F)F)C(F)(F)F` [Example 25, 4-(4-(4,4-Difluoropiperidine-1-carbonyl)-2-(5-(2-hydroxypropan-2-yl)-1,3,4-oxadiazol-2-yl)thiazol-5-yl)-3-fluoro-2-(trifluoromethyl)-N—((S)-1,1,1-trifluoropropan-2-yl)benzenesulfonamide], on full-length human RORγt, the half-maximal inhibitory concentration (IC50) was determined as 93 nM and the inhibition at 6 µM was 98%. Moreover, the equilibrium dissociation constant (Kd) in test [1] is 10 nM.

With `Cc1c(S(=O)(=O)N[C@@H](C)C(F)(F)F)ccc(-c2sc(-c3nnc(C(C)(C)O)o3)nc2C(=O)N2CCC(F)(F)CC2)c1F` [Example 26, 4-(4-(4,4-Difluoropiperidine-1-carbonyl)-2-(5-(2-hydroxypropan-2-yl)-1,3,4-oxadiazol-2-yl)thiazol-5-yl)-3-fluoro-2-methyl-N—((S)-1,1,1-trifluoropropan-2-yl)benzenesulfonamide], at full-length human RORγt, the half-inhibitory concentration (IC50) was 86 nM and the inhibition at 6 µM is 107%. Moreover, the Kd in test [1] was 5 nM.

As a reminder, the IC50 is the concentration that inhibits the measured activity by half. Usually inhibition stands for the relative decrease from the control value, in per cent. The term Kd denotes a measure of binding affinity in units of concentration.
